Source: patent publication US9737544B2, “Compounds” (ASTEX THERAPEUTICS LIMITED, priority 2012, dated 2017)

Experiments:
Format in all cases: cell-based
[1] = tested on: Ba/F3-KDR-transfected cells; assay: Ba/F3-KDR (minus IL3 or plus IL3) cellular proliferation assay; settings: 24 h, read-out: BAF3-KDR (MIN IL3) pIC50 (converted)
[2] = tested on: Ba/F3-FGFR1-transfected cells; assay: Ba/F3-FGFR1 (minus IL3 or plus IL3) cellular proliferation assay; settings: 24 h, read-out: BAF3-FGFR1 (MIN IL3) pIC50 (converted)
[3] = tested on: Ba/F3-FGFR4-transfected cells; assay: Ba/F3-FGFR4 cellular proliferation assay; settings: 24 h, read-out: BAF3-FGFR 4 pIC50 (converted)
[4] = tested on: Ba/F3-FGFR3-transfected cells; assay: Ba/F3-FGFR3 (minus IL3 or plus IL3) cellular proliferation assay; settings: 24 h, read-out: BAF3-FGFR3 (MIN IL3) pIC50 (converted)

| Compound | IC50 [1] [µM] | IC50 [2] [µM] | IC50 [3] [µM] | IC50 [4] [µM] |
| --- | --- | --- | --- | --- |
| COc1cc(OC)cc(C(O)c2ccc3ncc(-c4cnn(C)c4)nc3n2)c1 (stereo not shown) [Compound 2] | > 10 |  |  |  |
| COc1cc(OC)cc(C(C)(O)c2ccc3ncc(-c4cnn(C)c4)nc3n2)c1 (stereo not shown) [Compound 3] | > 10 | > 10 |  |  |
| COC(=O)CC(c1cc(OC)cc(OC)c1)c1ccc2ncc(-c3cnn(C)c3)nc2n1 (stereo not shown) [Compound 4] | > 10 |  | > 10 |  |
| COc1cc(OC)cc(C(=O)c2ccc3ncc(-c4cnn(C)c4)cc3n2)c1 [Compound 8] | > 10 |  | > 10 |  |
| COc1cc(OC)cc(C(O)c2ccc3ncc(-c4cnn(C)c4)cc3n2)c1 (stereo not shown) [Compound 10] | > 10 |  |  |  |
| COc1cc(OC)cc(C(OCCO)c2ccc3ncc(-c4cnn(C)c4)cc3n2)c1 (stereo not shown) [Compound 11] | > 10 |  |  |  |
| COc1cc(OC)cc(C(CCO)c2ccc3ncc(-c4cnn(C)c4)nc3n2)c1 (stereo not shown) [Compound 14] | > 10 |  |  |  |
| COc1cc(OC)cc(C(Cc2nccn2S(=O)(=O)N(C)C)c2ccc3ncc(-c4cnn(C)c4)nc3n2)c1 (stereo not shown) [Compound 15] | > 10 |  |  |  |
| COc1cccc(C(=O)c2ccc3ncc(-c4cnn(C)c4)cc3n2)c1 [Compound 16] | > 10 | > 10 |  |  |
| COc1cccc(C(O)c2ccc3ncc(-c4cnn(C)c4)cc3n2)c1 (stereo not shown) [Compound 17] | > 10 | > 10 |  |  |
| COc1cc(OC)cc(C(=O)c2ccc3ncc(N4CCOCC4)cc3n2)c1 [Compound 20] | > 10 | > 10 | > 10 |  |
| CCOC(=O)CC(c1cc(OC)cc(OC)c1)c1ccc2ncc(N3CCOCC3)cc2n1 (stereo not shown) [Compound 21] | > 10 | > 10 | > 10 |  |
| COc1cc(OC)cc(C(=O)c2cc3cc(-c4cnn(C)c4)cnc3cn2)c1 [Compound 23] | > 10 | > 10 | > 10 |  |
| CCOC(=O)CC(c1cc(OC)cc(OC)c1)c1cc2cc(-c3cnn(C)c3)cnc2cn1 (stereo not shown) [Compound 24] | > 10 | > 10 | > 10 | > 10 |
| COc1cccc(C(=O)c2cc3cc(-c4cnn(C)c4)cnc3cn2)c1 [Compound 26] |  | > 10 | > 10 | > 10 |
